Measurements reported in PMC9140701, “Immunomodulatory Role of BLG-Derived Peptides Based on Simulated Gastrointestinal Digestion and DC-T Cell from Mice Allergic to Cow’s Milk” (Foods, 2022).
Ends that are not written are not given here.

How the values were obtained:
[1] = Caco-2 monolayer transport (apparent permeability), normal and IL-1β-induced inflammation model; format: in vitro ADME, human; details: human; Caco-2 monolayer, 12-well Transwell, 21 days, TEER > 400 Ω × cm^2, from AP side, 37 °C; within 2 h, at the three time points; normal model and IL-1β-induced inflammation model; three replicates; read-out: apparent permeability coefficient (Papp)
Protocol: (§1) Caco-2 cells (a human colon adenocarcinoma cell line) were preserved in our lab and cultured in DMEM supplemented with 12% (v/v) FBS (FND500, ExCell Bio, Shanghai, China), 1% (v/v) L-glutamine, 1% (v/v) streptomycin–penicillin, and 1% (v/v) nonessential amino acids at 37 °C and 5% CO2. Caco-2 cells were seeded in 12-well Transwell plates at a density of 2 × 10^5 cells per well. On the 10th to 21st days, the transepithelial electrical resistance (TEER) of each well was detected using a Millicell ERS-2 V-ohm meter (Millipore, Boston, MA, USA). […] The protein profile of cow’s milk after simulated digestion was detected by (A) Tricine-SDS-PAGE. Lane 1: unstained low range protein ladder. Lane 2: pepsin. Lane 3: the cow’s milk. Lane 4: cow’s milk digested in the simulated adult gastrointestinal fluid for 0 min. Lane 5: cow’s milk digested in the simulated adult gastric fluid for 60 min. Lane 6: cow’s milk digested in the simulated adult gastrointestinal fluid for 60 min. Lane 7: cow’s milk digested in the simulated infant gastrointestinal fluid for 0 min. Lane 8: cow’s milk digested in the simulated infant gastric fluid for 60 min. Lane 9: cow’s milk digested in the infant simulated gastrointestinal fluid for 60 min. […] Y-axis value represents the occurrence numbers of amino acids of BLG peptides. (C) The whole amino acid sequence of BLG used in our study; the red letters indicate the areas where unique peptides are present after the simulated digestion of the infants, while the green letters represent unique peptides in the adults’ digestion. (D) The Papp of BLG peptides across Caco-;2 monolayers at 30 min, 1 h, 2 h, 3 h, and 4 h in the normal model and IL-1β-induced inflammation model, respectively. The data were calculated in three replicates. BLG, beta-lactoglobulin. Papp, apparent permeability coefficients.

Caco-2 cell monolayer = test: as above; format: in vitro ADME, human; details: integrity check
Protocol: as §1

Papp A→B [1] [×10⁻⁶ cm/s] | Molecule | fluorescein sodium transport permeability (Caco-2 cell monolayer; Caco-2 monolayer after 21 days, normal mode) [μg/h·cm^2] | fluorescein sodium transport permeability (Caco-2 cell monolayer; Caco-2 monolayer, inflammatory mode (IL-1β 10 ng/mL added on the 21st day, removed after 2 days)) [μg/h·cm^2]
> 2 | LIVTQTMKGLDIQK [Peptide A1] |  | 
> 2 | RVYVEELKPTPEGDLEILLQK [Peptide A3] |  | 
 | O=C([O-])c1ccccc1-c1c2ccc(=O)cc-2oc2cc([O-])ccc12.[Na+].[Na+] [fluorescein sodium, reference compound] | 1.19 | 1.71
> 2 | MAASDISLLDAQ [Peptide A2] |  | 
